Measurements published in patent US8278304B2, “Substituted 4-hydroxypyrimidine-5-carboxamides” (Merck Sharp & Dohme Corp., priority 2008, dated 2012).
Counter-ions that a name gives are not always drawn.

Target: T1, PHD2 (Homo sapiens, UniProt Q9GZT9)
T1 construct: FLAG-tagged full length PHD2 expressed in and purified from baculovirus-infected Sf9 cells; FLAG; made in house; host or cells: baculovirus-infected Sf9 cells
Assay: PHD2 / HIF-1α peptide hydroxylation assay, time resolved fluorescence (VHL complex detection)
Assay type: biochemical
Conditions: FLAG-tagged full length PHD2; 0.2 μM 2-oxoglutarate, 0.5 μM HIF-1α peptide; read-out: PHD2 Activity (PHD2 binding activity expressed as IC50 (nM))
Method: To each well of a 96-well plate was added 1 μL of test compound in DMSO and 20 μl of assay buffer (50 mM Tris pH 7.4/0.01% Tween-20/0.1 mg/ml bovine serum albumin/10 μM ferrous sulfate/1 mM sodium ascorbate/20 μg/ml catalase) containing 0.15 μg/ml FLAG-tagged full length PHD2 expressed in and purified from baculovirus-infected Sf9 cells. After a 30 min preincubation at room temperature, the enzymatic reactions were initiated by the addition of 4 μL of substrates (final concentrations of 0.2 μM 2-oxoglutarate and 0.5 μM HIF-1α peptide biotinyl-[…]).

T1 sequence (Q9GZT9 whole entry): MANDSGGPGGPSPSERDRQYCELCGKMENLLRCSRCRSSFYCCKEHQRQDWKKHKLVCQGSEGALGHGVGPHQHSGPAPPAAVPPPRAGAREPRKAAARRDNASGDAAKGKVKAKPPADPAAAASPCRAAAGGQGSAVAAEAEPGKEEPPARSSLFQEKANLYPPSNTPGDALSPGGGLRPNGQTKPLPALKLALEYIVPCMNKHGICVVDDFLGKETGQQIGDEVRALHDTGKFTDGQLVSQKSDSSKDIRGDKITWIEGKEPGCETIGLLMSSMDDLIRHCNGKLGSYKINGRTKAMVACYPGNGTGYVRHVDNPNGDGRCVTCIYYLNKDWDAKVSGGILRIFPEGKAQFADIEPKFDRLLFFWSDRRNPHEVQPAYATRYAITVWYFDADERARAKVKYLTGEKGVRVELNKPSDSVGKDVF

Structure (SMILES) | IC50
O=C(NC(c1ccccc1)c1ccccc1)c1cnc(-n2cncn2)nc1O [Example 46, N-(diphenylmethyl)-4-hydroxy-2-(1H-1,2,4-triazol-1-yl)pyrimidine-5-carboxamide] | 100 to 1000 nM
CC[C@H](NC(=O)c1cnc(-n2cccn2)nc1O)c1ccccc1 [Example 48, 4-Hydroxy-N-[(1S)-1-phenylpropyl]-2-(1H-pyrazol-1-yl)pyrimidine-5-carboxamide] | ≤ 10 nM
O=C(NCc1ccc(Cl)cc1Cl)c1cnc(-n2cccn2)nc1O [Example 51, N-(2,4-dichlorobenzyl)-4-hydroxy-2-(1H-pyrazol-1-yl)pyrimidine-5-carboxamide] | ≤ 10 nM
O=C(NCc1cccc(-c2ccccc2)c1)c1cnc(-n2cccn2)nc1O [Example 53, N-(biphenyl-3-ylmethyl)-4-hydroxy-2-(1H-pyrazol-1-yl)pyrimidine-5-carboxamide] | ≤ 10 nM
O=C(NCc1ccc(C(F)(F)F)cc1)c1cnc(-n2cccn2)nc1O [Example 54, 4-Hydroxy-2-(1H-pyrazol-1-yl)-N-[4-(trifluoromethyl)benzyl]pynmidine-5-carboxamide] | ≤ 10 nM
O=C(NCc1nc2ccccc2s1)c1cnc(-n2cccn2)nc1O [Example 55, N-(1,3-benzothiazol-2-ylmethyl)-4-hydroxy-2-(1H-pyrazol-1-yl)pyrimidine-5-carboxamide] | ≤ 10 nM
O=C(NCc1cccc2ccccc12)c1cnc(-n2cccn2)nc1O [Example 56, 4-Hydroxy-N-(1-naphthylmethyl)-2-(1H-pyrazol-1-yl)pyrimidine-5-carboxamide] | 10 to 100 nM
O=C(NC1CCc2ccccc21)c1cnc(-n2cccn2)nc1O (stereo not shown) [Example 57, N-(2,3-dihydro-1H-inden-1-yl)-4-hydroxy-2-(1H-pyrazol-1-yl)pyrimidine-5-carboxamide] | 10 to 100 nM
O=C(NC(c1ccccc1)c1ccncc1)c1cnc(-n2cccn2)nc1O (stereo not shown) [Example 58, 4-Hydroxy-N-[phenyl(pyridin-4-yl)methyl]-2-(1H-pyrazol-1-yl)pyrimidine-5-carboxamide] | ≤ 10 nM
O=C(NCc1ccc(Cl)nc1)c1cnc(-n2cccn2)nc1O [Example 59, N-[(6-chloropyridin-3-yl)methyl]-4-hydroxy-2-(1H-pyrazol-1-yl)pyrimidine-5-carboxamide] | 10 to 100 nM
O=C(NCc1ccc(-c2ccccc2Cl)cc1)c1cnc(-n2cccn2)nc1O [Example 62, N-[(2′-chlorobiphenyl-4-yl)methyl]-4-hydroxy-2-(1H-pyrazol-1-yl)pyrimidine-5-carboxamide] | ≤ 10 nM
O=C(NCc1ccc(-c2ccc(F)cc2)cc1)c1cnc(-n2cccn2)nc1O [Example 63, N-[(4′-fluorobiphenyl-4-yl)methyl]-4-hydroxy-2-(1H-pyrazol-1-yl)pyrimidine-5-carboxamide] | ≤ 10 nM
O=C(NCc1cnc(Cl)cn1)c1cnc(-n2cccn2)nc1O [Example 64, N-[(5-chloropyrazin-2-yl)methyl]-4-hydroxy-2-(1H-pyrazol-1-yl)pyrimidine-5-carboxamide] | 10 to 100 nM
O=C(NCc1cc(C(F)(F)F)cc(C(F)(F)F)c1)c1cnc(-n2cccn2)nc1O [Example 65, N-[3,5-bis(trifluoromethyl)benzyl]-4-hydroxy-2-(1H-pyrazol-1-yl)pyrimidine-5-carboxamide] | 100 to 1000 nM
Cc1cnc(CNC(=O)c2cnc(-n3cccn3)nc2O)cn1 [Example 66, 4-Hydroxy-N-[(5-methylpyrazin-2-yl)methyl]-2-(1H-pyrazol-1-yl)pyrimidine-5-carboxamide] | 100 to 1000 nM
O=C(NC(Cc1ccccc1)c1ccccc1)c1cnc(-n2cccn2)nc1O (stereo not shown) [Example 67, N-(1,2-diphenylethyl)-4-hydroxy-2-(1H-pyrazol-1-yl)pyrimidine-5-carboxamide] | ≤ 10 nM

More lines, now with the values ahead:

IC50 | Structure (SMILES)
10 to 100 nM | O=C(NCc1ccc(C(F)(F)F)cc1F)c1cnc(-n2cccn2)nc1O [Example 68, N-[2-fluoro-4-(trifluoromethyl)benzyl]-4-hydroxy-2-(1H-pyrazol-1-yl)pyrimidine-5-carboxamide]
≤ 10 nM | CC(C)(NC(=O)c1cnc(-n2cccn2)nc1O)c1ccc(F)cc1 [Example 73, N-[1-(4-fluorophenyl)-1-methylethyl]-4-hydroxy-2-(1H-pyrazol-1-yl)pyrimidine-5-carboxamide]
≤ 10 nM | CC(C)(NC(=O)c1cnc(-n2cccn2)nc1O)c1ccc(C(F)(F)F)nc1 [Example 74, 4-Hydroxy-N-{1-methyl-1-[6-(trifluoromethyl)pyridin-3-yl]ethyl}-2-(1H-pyrazol-1-yl)pyrimidine-5-carboxamide]
10 to 100 nM | CCN(NC(=O)c1cnc(-n2cccn2)nc1O)c1ccccc1 [Example 76, N′-Ethyl-4-hydroxy-N′-phenyl-2-(1H-pyrazol-1-yl)pyrimidine-5-carbohydrazide trifluoroacetate (salt)]
10 to 100 nM | Cc1ccc(CNC(=O)c2cnc(-n3cccn3)nc2O)cc1 [Example 77, 4-Hydroxy-N-(4-methylbenzyl)-2-(1H-pyrazol-1-yl)pyrimidine-5-carboxamide]
10 to 100 nM | Cc1ccc([C@@H](C)NC(=O)c2cnc(-n3cccn3)nc2O)cc1 [Example 78, 4-Hydroxy-N-[(1R)-1-(4-methylphenyl)ethyl]-2-(1H-pyrazol-1-yl)pyrimidine-5-carboxamide]
≤ 10 nM | Cc1ccc([C@H](C)NC(=O)c2cnc(-n3cccn3)nc2O)cc1 [Example 79, 4-Hydroxy-N-[(1S)-1-(4-methylphenyl)ethyl]-2-(1H-pyrazol-1-yl)pyrimidine-5-carboxamide]
10 to 100 nM | O=C(NN1CCCCC1)c1cnc(-n2cccn2)nc1O [Example 80, 4-hydroxy-N-piperidin-1-yl-2-(1H-pyrazol-1-yl)pyrimidine-5-carboxamide trifluoroacetate (salt)]
1000 to 10000 nM | O=C(c1cnc(-n2cccn2)nc1O)N1CCCCC1 [Example 81, 5-(Piperidin-1-ylcarbonyl)-2-(1H-pyrazol-1-yl)pyrimidin-4-ol]
10 to 100 nM | CC(C)(C)C1CCC(NC(=O)c2cnc(-n3cccn3)nc2O)CC1 (stereo not shown) [Example 82, N-(4-tert-butylcyclohexyl)-4-hydroxy-2-(1H-pyrazol-1-yl)pyrimidine-5-carboxamide]
100 to 1000 nM | O=C(N[C@@H]1CONC1=O)c1cnc(-n2cccn2)nc1O [Example 83, 4-Hydroxy-N-[(4R)-3-oxoisoxazolidin-4-yl]-2-(1H-pyrazol-1-yl)pyrimidine-5-carboxamide]
10 to 100 nM | C[C@@H](NC(=O)c1cnc(-n2cccn2)nc1O)C1CCCCC1 [Example 84, N-[(1R)-1-cyclohexylethyl]-4-hydroxy-2-(1H-pyrazol-1-yl)pyrimidine-5-carboxamide]
10 to 100 nM | C[C@H](NC(=O)c1cnc(-n2cccn2)nc1O)C1CCCCC1 [Example 85, N-[(1S)-1-cyclohexylethyl]-4-hydroxy-2-(1H-pyrazol-1-yl)pyrimidine-5-carboxamide]
≤ 10 nM | CC(NC(=O)c1cnc(-n2cccn2)nc1O)c1ccncc1 (stereo not shown) [Example 86, 4-hydroxy-2-(1H-pyrazol-1-yl)-N-(1-pyridin-4-ylethyl)pyrimidine-5-carboxamide trifluoroacetate (salt)]
≤ 10 nM | O=C(NC1(c2ccccc2)CC1)c1cnc(-n2cccn2)nc1O [Example 87, 4-Hydroxy-N-(1-phenylcyclopropyl)-2-(1H-pyrazol-1-yl)pyrimidine-5-carboxamide]
≤ 10 nM | CC(C)(NC(=O)c1cnc(-n2cccn2)nc1O)c1ccc(F)c(F)c1 [Example 89, N-[1-(3,4-difluorophenyl)-1-methylethyl]-4-hydroxy-2-(1H-pyrazol-1-yl)pyrimidine-5-carboxamide]
10 to 100 nM | CC(NC(=O)c1cnc(-n2cccn2)nc1O)[C@]12C[C@H]3C[C@H](C[C@H](C3)C1)C2 (stereo partly drawn) [Example 90, N-{(1R)-1-[(3S,5S,7S)-1-adamantyl]ethyl}-4-hydroxy-2-(1H-pyrazol-1-yl)pyrimidine-5-carboxamide]
≤ 10 nM | C[C@H](NC(=O)c1cnc(-n2cccn2)nc1O)c1ccc(Br)cc1 [Example 91, N-[(1S)-1-(4-bromophenyl)ethyl]-4-hydroxy-2-(1H-pyrazol-1-yl)pyrimidine-5-carboxamide]
≤ 10 nM | CC(C)(NC(=O)c1cnc(-n2cccn2)nc1O)c1ccc(Br)cc1 [Example 92, N-[1-(4-bromophenyl)-1-methylethyl]-4-hydroxy-2-(1H-pyrazol-1-yl)pyrimidine-5-carboxamide]
≤ 10 nM | O=C(NCc1ccc(Oc2ccccc2)cc1)c1cnc(-n2cccn2)nc1O [Example 93, 4-hydroxy-N-(4-phenoxybenzyl)-2-(1H-pyrazol-1-yl)pyrimidine-5-carboxamide]
≤ 10 nM | O=C(NC1(c2ccccc2)CCCCC1)c1cnc(-n2cccn2)nc1O [Example 94, 4-hydroxy-N-(1-phenylcyclohexyl)-2-(1H-pyrazol-1-yl)pyrimidine-5-carboxamide]
≤ 10 nM | O=C(c1ccccc1)c1ccc(CNC(=O)c2cnc(-n3cccn3)nc2O)cc1 [Example 95, N-(4-benzoylbenzyl)-4-hydroxy-2-(1H-pyrazol-1-yl)pyrimidine-5-carboxamide]
≤ 10 nM | Cc1ccc(Oc2ccc(CNC(=O)c3cnc(-n4cccn4)nc3O)cc2)cc1 [Example 97, 4-hydroxy-N-[4-(4-methylphenoxy)benzyl]-2-(1H-pyrazol-1-yl)pyrimidine-5-carboxamide]
≤ 10 nM | CCC(CC)(NC(=O)c1cnc(-n2cccn2)nc1O)c1ccccc1 [Example 98, N-(1-ethyl-1-phenylpropyl)-4-hydroxy-2-(1H-pyrazol-1-yl)pyrimidine-5-carboxamide]
